Data reported in patent US11266647B2, “Method for increasing cell proliferation in pancreatic beta cells, treatment method, and composition” (ICAHN SCHOOL OF MEDICINE AT MOUNT SINAI, priority 2016, dated 2022).
Entries after “also recorded” stand apart in the source; their conditions may differ.

Columns and labels:
SMAD signaling = experiment: Immunoblots of SMADs in whole human islets; format: cell-based
Excerpt: (§1) The immunoblots are representative of separate experiments in human islets from three different donors. […] Ad.shLacZ indicates a sh-adenovirus for the Ad.shDYRK1A.
Primary antisera employed were: SMAD2/3 (Cell Signaling, 8685p), p-SMAD3 (Abcam, ab52903), SMAD4 (Sc-7966, Santa Cruz), SMAD1/5/9 (ab66737, Abcam), p15INK4 (Abcam, ab53034), p16INK4a (Sc-468, Santa Cruz), p21CIP (556430, BD), p57CIP2 (2557s, Cell Signaling) and GAPDH (Sc-25778, Santa Cruz).
To ascertain whether the harmine-TGFβSF inhibitor combination affected SMAD signaling, human islets were incubated with harmine alone or in combination with two TGFβSF inhibitors: LY or ALK5 (FIG. 5A).

mouse beta cells = experiment: Mouse pancreas study: beta cell Ki-67/insulin after 7 days i.p. treatment; format: in vivo, C57BL/6N mice; details: C57BL6N mice, i.p. daily 7 days, harmine 10 mg/kg, GW788388 30 mg/kg
Description: (§2) On day seven, treatment was begun exactly as in FIG. 9A for seven days.
Male C57BL/6N mice (12 week-old) received vehicle (saline), 10 mg kg^−1 harmine HCl, 30 mg kg^−1 GW788388 or the combination of harmine and GW788388 by intraperitoneal injection daily for 7 days. Mice were sacrificed on day 7, pancreata harvested, fixed in 10% neutral buffered formalin, paraffin embedded, and sectioned. […] A minimum of 2,000 beta cells per pancreas were counted. Investigators were blinded as to group assignments.
(§3) To evaluate the effects of harmine and TGFβ inhibitor in vivo, C57BL6N mice were administered vehicle ([…]), harmine, GW788388, or the combination of harmine plus GW788388 intraperitoneally for seven days, sacrificed, and evaluated for insulin and Ki67. […] Next, human cadaveric islets were transplanted into NOD-SCID mice.

human beta cells [1] = experiment: Human islet transplant under renal capsule of NOD-SCID mice: beta cell Ki-67/insulin; format: in vivo, human islets in NOD-SCID mice; details: i.p. daily 7 days, harmine 10 mg/kg, GW788388 30 mg/kg
Description: as §2
Mice were allowed to recover for 7 days and then treated with vehicle (saline), 10 mg kg-1 harmine HCl, 30 mg kg-1 GW788388 or the combination of harmine and GW788388 by intraperitoneal injection daily for 7 days. Mice were sacrificed on day 7, renal grafts harvested, fixed in 10% neutral buffered formalin, paraffin embedded and sectioned.
as §3

human beta cells [2] = experiment: Ki67 immunolabeling in human islets with adenoviral silencing or overexpression plus drug; format: cell-based
Description: as §1
Unless otherwise described, all transductions were performed using 150 moi for one hour, and studies performed 72 hours later. […] Adenoviruses encoding human SMAD6 or SMAD7 were prepared as described using cDNAs encoding SMAD6 and SMAD7 obtained from Harvard PlasmID Database.
(§4) Primary antisera were: BrdU (ab6326, Abcam), Ki67 (RM-9106-sl, Thermo Scientific, and MIB1, DAKO), p-Histone-3 (06-570, Millipore), insulin (A0564, DAKO), p-yH2AX (MA1-2022, Thermo Scientific), NKX6.1 (F55A10-c, University of Iowa), PDX1 (07-696, Millipore), MAFA (Ab26405, Abcam), Glucagon (2760s, Cell Signaling), Somatostatin (Sc-20999, Santa Cruz), Pancreatic Polypeptide (A0619, DAKO), and CK19 (Ab52625, Abcam). Species-specific mouse Alexa Fluor 488 (A-11029, Life Technologies), rat Alexa Fluor 594 (A-11007, Life Technologies), rabbit Alexa Fluor 488 (A11037, Life Technologies) or guinea pig Alexa Fluor 488 (A-11073, Life Technologies) secondary antisera were selected as appropriate.

human beta cells [3] = experiment: Ki67 labeling of insulin-positive cells in dispersed human cadaveric islets; format: cell-based; details: for Ki67 labeling with other DYRK1A inhibitors in combination therapy: DYRK1A inhibitor other than harmine, with TGFβSF inhibitor
Excerpt: as §4

TGFβ superfamily members = experiment: RNAseq of whole human islets; format: cell-based
beta cells of T2D islets = experiment: Ki67 immunolabeling in islets from donors with Type 2 diabetes; details: harmine alone
Description: Islets from normal and Type 2 diabetes adult cadaveric pancreas donors were obtained from the NIH/NIDDK-supported Integrated Islet Distribution Program and from the Alberta Diabetes Institute. Depending on the experiments performed, islets were used either as intact islets, or were first dispersed with Accutase (Sigma, St. Louis, Mo.) onto coverslips.

[4] = test system: cell cycle activators and cell cycle inhibitors; experiment: qPCR of cell cycle activators and inhibitors in whole human islets
Description: Gene expression in dispersed islets was analyzed by real-time PCR performed on an ABI 7500 System.
Reasoning that harmine and harmine-TGFβ inhibitors (and DYRK1A and SMADs, respectively) must ultimately orchestrate cell cycle entry via cell cycle activators and cell cycle inhibitors, gene expression of cell cycle activators and inhibitors was examined in whole islets treated with vehicle, harmine, TGFβ inhibitor or the harmine-TGFβ inhibitor combination (FIGS. 6A-6B).

SMILES: c1ccc(-c2n[nH]cc2-c2ccnc3ccccc23)nc1 [LY364947, 4-[3-(2-Pyridinyl)-1H-pyrazol-4-yl]-quinoline]
- p-SMAD3 (SMAD3 phosphorylation), immunoblot (SMAD signaling): further reduced

SMILES: Cc1cccc(-c2n[nH]cc2-c2ccc3ncccc3n2)n1 [ALK5 inhibitor, 2-(3-(6-Methylpyridin-2-yl)-1H-pyrazol-4-yl)-1,5 napththyridine]
- p-SMAD3 (SMAD3 phosphorylation), immunoblot (SMAD signaling): further reduced

SMILES: O=C(NC1CCOCC1)c1ccc(-c2cc(-c3c[nH]nc3-c3ccccn3)ccn2)cc1 [GW788388, 4-(4-(3-(pyridin-2-yl)-1H-pyrazol-4-yl)pyridin-2-yl)-N-(tetrahydro-2H-pyran-4-yl)benzamide]
- mouse beta cell proliferation in vivo (Ki67/insulin) (mouse beta cells): induced beta cell proliferation
- human beta cell proliferation in vivo in transplanted islets (human beta cells [1]): had no effect
- proliferation with adenoviral silencing of DYRK1A (human beta cells [2]; Ad.shDYRK1A plus TGFβ inhibitor): markedly accentuates proliferation

SMILES: CCN1/C(=C/C(C)=O)Sc2ccc(O)cc21 [INDY]
- Ki67 labeling with other DYRK1A inhibitors in combination therapy (human beta cells [3]): beneficial effects

SMILES: COc1ccc2c(c1)[nH]c1c(C)nccc12 [harmine]
- p-SMAD3 (SMAD3 phosphorylation), immunoblot (SMAD signaling): reductions; also recorded: reduced
- total SMAD1/5/9, immunoblot (SMAD signaling): reductions; also recorded: reduced
- mouse beta cell proliferation in vivo (Ki67/insulin) (mouse beta cells): induced beta cell proliferation
- human beta cell proliferation in vivo in transplanted islets (human beta cells [1]): increased this rate
- BMP1 (RNAseq) (TGFβ superfamily members; Donor 1): 4 FPKM
- BMP5 (RNAseq) (TGFβ superfamily members; Donor 1): 26 FPKM
- GDF11 (RNAseq) (TGFβ superfamily members; Donor 1): 3 FPKM
- INHA (RNAseq) (TGFβ superfamily members; Donor 1): 1 FPKM
- TGFB2 (RNAseq) (TGFβ superfamily members; Donor 1): 3 FPKM
- TGFBR1 (RNAseq) (TGFβ superfamily members; Donor 1): 9 FPKM
- TGFBR2 (RNAseq) (TGFβ superfamily members; Donor 1): 3 FPKM
- TGFB1 (RNAseq) (TGFβ superfamily members; Donor 1, row r7): 24 FPKM
- TGFB1 (RNAseq), second line so named (TGFβ superfamily members; Donor 1, row r11): 62 FPKM
- BMP1 (RNAseq) (TGFβ superfamily members; Donor 2): 3 FPKM
- BMP5 (RNAseq) (TGFβ superfamily members; Donor 2): 20 FPKM
- GDF11 (RNAseq) (TGFβ superfamily members; Donor 2): 3 FPKM
- INHA (RNAseq) (TGFβ superfamily members; Donor 2): 1 FPKM
- TGFB2 (RNAseq) (TGFβ superfamily members; Donor 2): 2 FPKM
- TGFBR1 (RNAseq) (TGFβ superfamily members; Donor 2): 8 FPKM
- TGFBR2 (RNAseq) (TGFβ superfamily members; Donor 2): 3 FPKM
- TGFB1 (RNAseq) (TGFβ superfamily members; Donor 2, row r7): 19 FPKM
- TGFB1 (RNAseq), second line so named (TGFβ superfamily members; Donor 2, row r11): 22 FPKM
- changes in TGFβSF members on harmine treatment of human islets (TGFβ superfamily members; RNAseq): notable changes
- harmine-induced proliferation with overexpression of SMADs 6 and 7 (human beta cells [2]; adenoviral overexpression, 100 moi): markedly enhanced
- harmine-induced proliferation with silencing of SMADs 2, 3, and 4 (human beta cells [2]; adenoviral silencing, 150 moi each): further enhanced
- proliferation with silencing of CDKN1A and/or CDKN1C (human beta cells [2]; harmine 10 μM): robust human beta cell proliferation
- Ki67 immunolabeling in T2D islets (beta cells of T2D islets): increased Ki67 immunolabeling to the same degree observed in non-diabetic islet donors
- expression of cell cycle activators (e.g., CDK1, CCNA1, CCNE2, CDC25A) ([4]; harmine 10 μM, LY364947 5 μM, qPCR): induced expression
- cell cycle inhibitor expression other than CDKN1C ([4]; harmine alone): modest and limited effects
- decline of CDKN1C (p57KIP2) expression ([4]; harmine alone, qPCR): ~50%

SMILES: O=C1NC(Nc2ccccc2)=N/C1=C\c1ccc2c(c1)OCO2 [leucettine-41]
- activation of human beta cell proliferation (human beta cells [3]; DYRK1A inhibitor): able to activate human beta cell proliferation
- Ki67 labeling with other DYRK1A inhibitors in combination therapy (human beta cells [3]): beneficial effects
